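Tested at 5 concentrations; 48 h exposure; 96-well plates; endpoints linearly interpolated, else capped at highest concentration. Here, GI50 denotes the concentration required for 50% inhibition of growth. TGI: concentration producing complete growth inhibition.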
Assays:
Assay in all cases: DTP human tumour cell line panel, 48 h
[1] = system: K-562 leukemia
[2] = system: SK-OV-3 ovarian
[3] = system: NCI-H522 lung
[4] = system: TK-10 renal
[5] = system: OVCAR-4 ovarian
[6] = system: U251 CNS
[7] = system: CCRF-CEM leukemia
[8] = system: M14 melanoma
[9] = system: NCI-H226 lung
[10] = system: HCC-2998 colon

SMILES | TGI [1] | TGI [2] | TGI [3] | TGI [4] | TGI [5] | TGI [6] | TGI [7] [µM] | TGI [8] | GI50 [2] | GI50 [9] | TGI [9] | GI50 [3] | GI50 [4] | GI50 [10] | TGI [10] | GI50 [5] | GI50 [6] | GI50 [7] [µM] | GI50 [8] | GI50 [1]
O=C(NNC(=O)c1ccncc1)c1ccncc1 | > 100 µM | > 100 µM | > 100 µM | > 100 µM | > 100 µM | > 100 µM | > 100 | > 100 µM | – | – | – | – | – | – | – | – | – | – | – | –
CC1=C([Se]CC(OC(=O)[C@@H](CO)NC(=O)OC(C)(C)C)C(=O)NC(C)(C)C)C(=O)c2ccccc2C1=O (stereo partly drawn) | – | 2.55 µM | 3.14 µM | 3.44 µM | 2.49 µM | 2.56 µM | > 100 | 3.04 µM | 1.27 µM | 1.96 µM | 4.21 µM | 1.6 µM | 1.98 µM | 1.82 µM | 3.23 µM | 1.23 µM | 0.986 µM | 0.525 | 1.66 µM | –
NC(=O)C(NC=O)c1ccccc1 (stereo not drawn) | > 100 µM | > 100 µM | > 100 µM | > 100 µM | > 100 µM | > 100 µM | > 100 | > 100 µM | – | – | – | – | – | – | > 100 µM | – | – | – | – | –
CC1(C)CC2C=C(C=O)C3(C=O)CC3(C)C2C1 (stereo not drawn) | – | 16.2 µM | 2.51 µM | 5.62 µM | 3.22 µM | 6.45 µM | 1.15 | 5.24 µM | – | – | 9.18 µM | – | – | – | 18.2 µM | – | – | – | – | –
COc1cccc(C2NC(=S)NC(C)=C2C(=O)Nc2ccc(F)c(Cl)c2)c1 (stereo not drawn) | 49.2 µM | > 50 µM | > 50 µM | > 50 µM | – | > 50 µM | – | > 50 µM | > 50 µM | – | – | 20.8 µM | 30.1 µM | – | – | – | 23.9 µM | – | 25.2 µM | 12.6 µM
Cc1cc(C(=O)N2CCN(Cc3ccccc3)CC2)c(C)o1 | > 100 µM | > 100 µM | > 100 µM | > 100 µM | > 100 µM | > 100 µM | > 100 | > 100 µM | – | – | – | – | – | – | > 100 µM | – | – | – | – | –
O=c1[nH]c(SCc2c(Cl)c(Cl)c(Cl)c(Cl)c2Cl)nc(=S)[nH]1 | 45.9 µM | > 100 µM | 34.4 µM | > 100 µM | 54.8 µM | > 100 µM | 36.9 | > 100 µM | – | – | > 100 µM | – | – | – | – | – | – | – | – | –
CNC(C)C(=O)N[C@H](C(=O)N1CCC[C@@H]1CN(CCc1ccccc1)C(=O)C(F)(F)F)[C@H](C)OCC#CC#CCO[C@H](C)[C@H](NC(=O)[C@H](C)NC)C(=O)N1CCC[C@H]1CN(CCc1ccccc1)C(=O)C(F)(F)F (stereo partly drawn) | 1.49 µM | < 0.01 µM | 2.18 µM | 3.8 µM | – | 2.48 µM | 2.54 | 3.41 µM | < 0.01 µM | 1.54 µM | 3.06 µM | 0.724 µM | 2.22 µM | 1.45 µM | 3.04 µM | – | 1.1 µM | 0.602 | 1.79 µM | 0.366 µM
Cc1cc(NS(=O)(=O)c2ccc(NC(=O)c3cccc4c(Nc5ccc(S(=O)(=O)Nc6cc(C)on6)cc5)c5ccccc5nc34)cc2)no1 | > 100 µM | > 100 µM | 51.7 µM | – | > 100 µM | 86.9 µM | > 100 | > 100 µM | – | – | – | – | – | – | – | – | – | – | – | –
CC1(C)C(=S)C(C)(C)C1=S | > 100 µM | > 100 µM | – | > 100 µM | > 100 µM | > 100 µM | – | > 100 µM | – | – | > 100 µM | – | – | – | > 100 µM | – | – | – | – | –
CC(=O)OC1C(CCl)OC(N=[N+]=[N-])C(OC(C)=O)C1OC(C)=O (stereo not drawn) | > 100 µM | > 100 µM | > 100 µM | > 100 µM | > 100 µM | > 100 µM | > 100 | > 100 µM | – | – | – | – | – | – | > 100 µM | – | – | – | – | –
O=C(O)C1c2ccccc2C(C(=O)O)c2ccccc21 (stereo not drawn) | > 100 µM | > 100 µM | > 100 µM | > 100 µM | > 100 µM | > 100 µM | > 100 | > 100 µM | – | – | – | – | – | – | > 100 µM | – | – | – | – | –
COc1cc([C@@H]2c3cc4c(cc3[C@@H](O[C@@H]3O[C@@H]5CO[C@@H](c6cccs6)O[C@H]5[C@H](O)[C@H]3O)[C@H]3COC(=O)[C@H]23)OCO4)cc(OC)c1O | > 100 µM | 10.2 µM | 1.4 µM | – | 37.4 µM | 6.96 µM | > 100 | 2.95 µM | 0.456 µM | 0.152 µM | 0.742 µM | 0.208 µM | – | 0.385 µM | 2.02 µM | 2.83 µM | 0.18 µM | 0.0704 | 0.267 µM | 0.411 µM
CC(C)(C)[Si](C)(C)O/N=C\c1ccc(O[Si](C)(C)C(C)(C)C)cc1 | > 100 µM | > 100 µM | – | > 100 µM | > 100 µM | 61.7 µM | > 100 | > 100 µM | – | – | – | – | – | – | > 100 µM | – | – | – | – | –
COc1ccc2c(=O)c3cc([N+](=O)[O-])ccc3n(C)c2c1 | > 100 µM | – | > 100 µM | > 100 µM | > 100 µM | > 100 µM | > 100 | > 100 µM | – | – | > 100 µM | – | – | – | > 100 µM | – | – | – | – | –
c1ccc(-c2nn(-c3ccccc3)[n+](-c3cccc4ccccc34)n2)cc1 | 16.1 µM | > 100 µM | 10.9 µM | 73.6 µM | 12.4 µM | > 100 µM | – | 23.1 µM | 4.61 µM | – | – | 0.979 µM | 8.53 µM | 1.91 µM | 14.8 µM | 0.394 µM | 0.967 µM | – | 3.09 µM | 0.608 µM
C=C(C)[C@@H]1CCC2=C[C@@H](OC2=O)[C@@H](C(=C)C)C(=O)/C=C(/C)C(=O)C1 | > 100 µM | – | > 100 µM | 90.9 µM | > 100 µM | > 100 µM | 28.8 | 50.5 µM | – | 36.9 µM | > 100 µM | 34.4 µM | 31.3 µM | 26.2 µM | 62.2 µM | 71.6 µM | 33.4 µM | 4.78 | 20.8 µM | 18.7 µM
COC(=O)[C@H](CC(C)C)NC(=O)NC(=O)NC(=O)CI | 4.6 µM | 31.8 µM | 3.2 µM | 3.62 µM | 4.26 µM | 29.3 µM | – | 4.94 µM | 17.6 µM | 2.95 µM | 10 µM | 1.67 µM | 1.72 µM | 11.4 µM | 24.2 µM | 1.88 µM | 15.8 µM | – | 2.03 µM | 1.91 µM
CCc1c(Cl)nc(Cl)nc1Cl | > 32 µM | 12.3 µM | 0.113 µM | 4.77 µM | – | 0.92 µM | – | 0.99 µM | – | – | 0.283 µM | – | – | – | 0.774 µM | – | – | – | – | –
O=C(O)C#CCO | > 100 µM | > 100 µM | > 100 µM | > 100 µM | > 100 µM | > 100 µM | > 100 | > 100 µM | – | – | – | – | – | – | – | – | – | – | – | –
NCC1OC(OC2C(CO)OC(OC3C(O)C(N)CC(N)C3OC3OC(CO)C(O)C(O)C3N)C2O)C(N)C(O)C1O (stereo not drawn) | > 50 µg/mL | > 50 µg/mL | > 50 µg/mL | > 50 µg/mL | > 50 µg/mL | > 50 µg/mL | – | > 50 µg/mL | > 50 µg/mL | > 50 µg/mL | > 50 µg/mL | > 50 µg/mL | > 50 µg/mL | > 50 µg/mL | > 50 µg/mL | > 50 µg/mL | > 50 µg/mL | – | > 50 µg/mL | > 50 µg/mL
CCC[CH2][Sn]([CH2]CCC)([O]C(=O)c1nccnc1N)[O]C(=O)c1nccnc1N | – | 3.63 µM | 0.18 µM | 2.02 µM | 3.49 µM | 1.65 µM | – | 2.49 µM | 2.06 µM | 1.33 µM | 2.63 µM | 0.052 µM | 0.742 µM | 1.21 µM | 2.45 µM | 2.02 µM | 0.478 µM | – | 1.23 µM | –
CCN(CC)CCNC(=O)c1cccc2cc3ccccc3nc12 | > 100 µM | 37.9 µM | – | 31.8 µM | – | 81.5 µM | 41.3 | 21.7 µM | – | – | 15.9 µM | – | – | – | 25.9 µM | – | – | – | – | –
CCC1CC(=O)N(SCC(N)C(=O)O)C1=O (stereo not drawn) | > 100 µM | > 100 µM | > 100 µM | > 100 µM | > 100 µM | > 100 µM | > 100 | > 100 µM | – | – | > 100 µM | – | – | – | – | – | – | – | – | –
CC1OC(OC2CC(O)C3(CO)C4C(O)CC5(C)C(C6=CC(=O)OC6)CCC5(O)C4CCC3(O)C2)C(O)C(O)C1O (stereo not drawn) | – | 0.0552 µM | < 0.0312 µM | 0.0323 µM | 0.0176 µM | 0.0683 µM | – | 0.0784 µM | 0.0157 µM | 0.0167 µM | 0.0646 µM | < 0.0147 µM | < 0.0105 µM | 0.0606 µM | 0.204 µM | < 0.0124 µM | 0.0219 µM | – | 0.0212 µM | < 0.0198 µM
N#CC(C#N)=CSc1ccccc1 | > 100 µM | > 100 µM | 24.5 µM | > 100 µM | > 100 µM | 52.4 µM | > 100 | 66.8 µM | – | – | 51.2 µM | – | – | – | – | – | – | – | – | –
CC(=O)OCC1OC(OC2=C(CC=C(Cl)Cl)C(=O)c3ccccc3C2=O)C(OC(C)=O)C(OC(C)=O)C1OC(C)=O (stereo not drawn) | > 100 µM | 28.7 µM | 5.2 µM | 21.5 µM | – | 13.3 µM | > 100 | 28 µM | 15.1 µM | 15.6 µM | 50.5 µM | 2.17 µM | 9.61 µM | 6.96 µM | 20.9 µM | – | 3.54 µM | 0.894 | 12.6 µM | 1.06 µM
